Results reported in patent US11185523B2, “Use of bipolar trans carotenoids with chemotherapy and radiotherapy for treatment of cancer” (DIFFUSION PHARMACEUTICALS LLC, priority 2016, dated 2021).
“Also recorded” adds a separate entry of the source.

Columns and labels:
[1] = Change in partial pressure of oxygen, low vs high efficacious dose (FIG. 1); assay type: in vivo; conditions: FIG. 1 hyperoxic rat
Description: FIG. 1 illustrates the change in partial pressure of oxygen of a hyperoxic rat resulting from administration of a low efficacious dose amount compared to a high efficacious dose amount of TSC.
It has been discovered that for a mammal, there are two concentrations of a bipolar trans carotenoid, such as TSC, that result in increased oxygen partial pressure—the “low” dose and the “high” dose—in a tumor. For humans, the low dose range is 0.15-0.35 mg/kg and the high dose range is 0.75 to 2.0 mg/kg. Both doses result in approximately the same maximum increase in oxygen partial pressure.

[2] = Stability of TSC versus pH; assay type: physicochemical; conditions: dependence on pH
Description: Mannitol can be used to adjust osmolality and its concentration varies depending on the concentration of other ingredients. The glycine is held constant. […] The use of glycine is compatible with lyophilization. Alternatively, the TSC and cyclodextrin is formulated using a 50 mM bicarbonate or other buffers, in place of the glycine.

[3] = test system: Hemorrhagic Shock; test: Pre-clinical efficacy study: Hemorrhagic Shock; assay type: in vivo
Text: (§1) It has also been determined that several non-cancer disorders are beneficially treated utilizing an administration regimen of a bipolar trans carotenoid such as TSC, as described below.

[4] = test system: Hemorrhagic Stroke; test: Pre-clinical efficacy study: Hemorrhagic Stroke; assay type: in vivo; conditions: Rat
Text: as §1

[5] = test system: Wound Healing; test: Pre-clinical efficacy study: Wound Healing; assay type: in vivo; conditions: Pig
Text: as §1

[6] = test system: DMBA breast tumors; test: DMBA breast tumor model, TSC before chemotherapy; assay type: in vivo; conditions: for tumor growth, timing of TSC injection: Day 2, FIG. 5
Description: Breast tumors were induced through injection of DMBA (dimethylbenzantracene) under the mammary tissue of female rats. The tumors usually grow in most rats and reach measurable conditions after 10 days.
The following studies used a method in which a 3-mL syringe is filled first with 1 ml of DMBA dissolved in sunflower seed oil (20 mg DMBA per mL of solution). Following that, 2 mL's of air are pulled into the syringe. The needle of the syringe is then inserted under the mammary tissue near a hind leg and the air in the syringe is carefully injected. The injection of the air forms a “pocket”, and then the 1 mL of DMBA solution is injected into that pocket.
After the tumors have grown up (about 10 days), their volumes are estimated by measuring the diameter (d) and the length (L) of the football-shaped tumors formed. This is done using calipers after feeling the tumor with one's fingers. To estimate the volume of the tumor, you multiply the diameter squared times the length and divide by 2: Tumor volume (in mm3)={(d in mm)^22}×(L in mm)
TSC or saline (controls) was injected in the tail vein of the rats at a volume of 0.1 mL and a dose of 0.25 mg/kg TSC about 1-2 hours before the chemotherapeutic agent was injected intraperitoneally (IP) in the rats.
In order to understand which dosages are efficacious when used with chemotherapy, a rat model of breast tumors was used. The model involves injecting the chemical dimethylbenzanthracene (DMBA) under the mammary gland of a female Sprague-Dawley rat. After a few days, tumors begin to grow and can be measured by feeling the football-shaped tumor under the skin and measured using calipers.

[7] = test system: VEGF A gene; test: Expression of HIF1 targeted genes in hypoxic conditions; conditions: gene upregulated with hypoxia
Text: The subject disclosure relates to the treatment of various tumors and/or cancers (i.e., gliobastoma, pancreatic cancer, etc.). It is well established that tumors are hypoxic with many tumor types being highly hypoxic. Further, it is known that hypoxic tumors are more resistant to radiotherapy and chemotherapy. Through HIF1 alpha up-regulation, hypoxia is associated with multiple negative effects that lead to aggressive tumor phenotypes. These effects include increased angiogenesis, increased metastasis, as well as increased resistance to chemotherapy and radiation therapy. Hypoxia via HIF1a affects many genes involved in cancer progression. Bipolar trans carotenoids such as TSC alter expression of HIF1 targeted genes in hypoxic conditions.

[8] = test system: Ischemic Stroke; test: Pre-clinical efficacy study: Ischemic Stroke; assay type: in vivo
Text: as §1

[9] = test system: hypoxic tissue; test: Reoxygenation of hypoxic tissue after low and high dose; assay type: in vivo, human; conditions: humans
Text: With bipolar trans carotenoids such as TSC, there are discrete concentrations that produce efficacy in causing maximum oxygen partial pressure in animals or humans.

[10] = test system: Parkinson's Disease; test: Pre-clinical efficacy study: Parkinson's Disease; assay type: in vivo; conditions: Rat
Text: as §1

[11] = test system: newly diagnosed GBM; test: Phase ½ clinical trial of TSC with RT and TMZ in GBM; assay type: in vivo, human; conditions: for Observed Survival Rate with TSC Treatment (Kaplan-Meier): TSC 0.25 mg/kg IV 3 times per week about 45 minutes prior to RT, plus TMZ
Text: To date, TSC has been used in 148 human subjects […] […] A Phase 1⁄2 clinical trial was recently completed examining TSC in patients with GBM. The Phase 1⁄2 clinical trial in GBM enrolled 59 patients with newly diagnosed disease that received TSC in conjunction with radiation therapy (RT) and temozolomide (TMZ). In the Phase I portion of the trial TSC was initially administered three times per week at half-dose to three patients prior to radiation. Six additional patients received full dose TSC for six weeks in combination with radiation. […] Fifty additional patients were enrolled in the Phase II trial at full dose TSC in combination with TMZ and RT. Four weeks after completion of RT, all patients resumed TMZ for five days every four weeks, but no further TSC was administered. More specifically, fifty-nine patients with newly-diagnosed GBM were enrolled. Patients received standard of care (SOC) radiation therapy (RT) (2 Gy/day, 5 days/week for 6 weeks) and TMZ (75 mg/m2) starting within 5 weeks after a surgical resection of their tumor, if such surgery were possible. Patients receiving only needle biopsies (i.e., no surgery) were also enrolled. In addition to the SOC, TSC was administered 3 times per week, 0.25 mg/kg IV, usually on Monday, Wednesday and Friday, about 45 minutes prior to the RT sessions. Four weeks after completion of RT, patients began chemotherapy with TMZ for 5 days of the first week of a 4 week cycle. This continued for 6 such cycles. No TSC was administered during this chemotherapy.

## CC(/C=C/C=C(\C)C(=O)[O-])=C\C=C\C=C(C)\C=C\C=C(/C)C(=O)[O-].[Na+].[Na+] [TSC, trans sodium crocetinate]
[1]
  oxygen partial pressure, duration of maximum: sustained maximum oxygen partial pressure
[2]
  stability: more stable at higher pHs
[3]; Pig
  Best Dosage: Low
[3]; Rat, low dose (for rats) 0.1 mg/kg, high 0.25 mg/kg
  Best Dosage: Low
[4]
  Best Dosage: Low
[5]
  Best Dosage: High
[6]; high dose (for rats) 0.25 mg/kg TSC 2 hours before 1 mg/kg cisplatin IP on days 0, 4, 11, 18, FIG. 2
  effect on tumor volume with cisplatin: efficacious; also recorded: significant improvement in tumor volume over the control
[6]; high dose TSC 2 hours before gemcitabine 7.5 mg/kg
  tumor growth, timing of TSC injection: best and best results
[6]; high dose TSC 2 hours prior to doxorubicin
  pseudoprogression (increase in tumor volume on day 7): Pseudoprogression was also seen
[6]; high dose TSC 2 hours prior to doxorubicin, FIG. 7
  tumor growth with doxorubicin: marked reduction in tumor growth in comparison with the control group
[6]; high dose TSC 2 hours prior to temozolomide, FIG. 6
  pseudoprogression (increase in tumor volume on day 7): pseudoprogression was seen
[6]; high dose TSC 2 hrs. prior to paclitaxel
  pseudoprogression: Pseudoprogression was also seen
[6]; high dose TSC 2 hrs. prior to paclitaxel, Days 0, 4, 8, 14, FIG. 8
  tumor growth with paclitaxel: marked reduction in tumor growth in comparison with the control group
[6]; high dose TSC concurrently, 1 hour before or 2 hours before gemcitabine 7.5 mg/kg
  tumor growth, timing of TSC injection: reduced tumor growth relative to control
[6]; high dose of TSC 2 hours before 5 mg/kg gemcitabine IP on days 0, 3, FIG. 4
  tumor growth with gemcitabine: substantially less tumor growth than those in the control group
[6]; high dose of TSC 2 hours before 10 mg/kg gemcitabine IP on days 0, 3, day 3, FIG. 3
  effect on tumor volume with gemcitabine: efficacious; also recorded: significant decrease in tumor volume
[7]
  VEGF A gene expression: down regulated
[8]; Rabbit
  Best Dosage: Low
[8]; Rat
  Best Dosage: Low
[9]; high dose of 0.75-2.0 mg/kg, e.g. 1.5 mg/kg
  duration of maximum reoxygenation: lasts for over an hour
[9]; low dose of 0.15-0.35 mg/kg
  duration of maximum reoxygenation: lasts for a short time
[9]; low dose of 0.15-0.35 mg/kg, e.g. 0.25 mg/kg
  time of maximum reoxygenation of hypoxic tissue after injection: 50 min
[10]
  Best Dosage: High
[11]; 1 year
  Observed Survival Rate with TSC Treatment (Kaplan-Meier): 71.2%
[11]; 2 years
  Observed Survival Rate with TSC Treatment (Kaplan-Meier): 36.3%
[11]; 37 patients with partial resection or no resection, MRI
  reduction in tumor size: vast majority of these 37 patients showed reduction in tumor size
[11]; all groups of patients administered TSC in addition to SOC treatment
  survival at 2 years vs historical controls: better survival at 2 years
[11]; at both 1 and 2 years
  survival greater than rate in historical trial: 10%
[11]; biopsy-only patients
  survivability at two years: 42.9%
[11]; full-dose patients
  patients showing complete elimination of tumors: ~20%
[11]; low dose (0.25 mg/kg) 45 minutes before radiation
  effect on glioblastoma multiforme tumors: effective
[11]; nine patients, Phase I portion, half-dose and full dose TSC with radiation
  dose-limiting toxicities: No dose-limiting toxicities were identified
[11]; subgroup of patients considered inoperable, vs control
  increase in chance of survival at two years: over 100%
[11]; subgroup of patients considered inoperable, less than 20 percent in the control
  alive at two years: 40%
